Reference: patent US20040062764A1, “Chemoprotectant for gastric toxicity” (priority 2003, published 2004)
≈ marks a conversion by molar mass, not a printed value. Entries after “also recorded” stand apart in the source; their conditions may differ. Like-named read-outs stand apart in the source and are kept apart here.

How the values were obtained:
[1] = tested on: human gastric carcinoma cell line (AGS); test: Cytotoxicity dose response in gastric carcinoma cells; conditions: for EC50: Homo sapiens, AGS; for cell survival, comparison of combinations (FIGS. 5 and 6): NAC+BSO+BR96-DOX versus BR96-DOX+BSO without NAC
Protocol: (§1) A NHGC cell line and a human gastric carcinoma cell line (AGS) were obtained.
The dose response curves for BR96-DOX and doxorubicin with or without the addition of buthionine sulfoximine (BSO) at a concentration of 100 μM were assessed.

[2] = tested on: normal human gastric cells (NHGC); conditions: for percent viable gastric cells, BR96-DOX plus chemoprotectant (FIGS. 3 and 4): with or without BSO pretreatment
Protocol: Cytotoxicity was assessed in cultured normal human gastric cells (NHGC), using the WST colorometric assay for live cells. Cells were treated with approximately LD90 dose of BR96-DOX, immediately followed by NAC at the indicated concentrations.
as §1

B.5 LX-1 SCLC cells = test: WST colorometric live-cell assay, NAC chemoprotection against alkylating chemotherapy; format: cell-based; conditions: Homo sapiens; approx. LD90 chemotherapy (melphalan 20 μM, carboplatin 200 μM, cisplatin 20 μM); NAC added immediately after; all three drugs; read-out: NAC concentration for half-maximal protection against cell death
Protocol: Cytotoxicity was assessed in cultured B.5 LX-1 SCLC cells, using the WST colorometric assay for live cells. Cells were treated with approximately LD90 dose of chemotherapy (melphalan=20 μM, carboplatin=200 μM, cisplatin=20 μM). Immediately following chemotherapy, NAC chemoprotectant was added at the indicated concentration. NAC protected against cell death by all three chemotherapeutic drugs, with half-maximal protection found between 0.1 mg/ml NAC and 0.3 mg/ml NAC.

[3] = NAC biodistribution with radiolabelled tracer; format: in vivo, rat
Protocol: (§2) NAC biodistribution was determined with radiolabelled tracer (n=12). Blood and tissue GSH levels were measured with a colorometric kit 9 (n=19). For bone marrow toxicity studies, rats were treated with or without BSO (10 g/m^2 i.p. b.i.d.×3 days), followed by chemotherapy consisting of intra-carotid carboplatin (200 mg/m^2), melphalan (10 mg/m^2) and etoposide phosphate (100 mg/m^2) (n=61). The dose of NAC was 1200 mg/m^2 and STS was 8 gm/m^2. White blood cell and platelet counts were obtained prior to, at 6 days and 9-10 days after chemotherapy.

bone marrow = test: Bone marrow toxicity study after intra-carotid combination chemotherapy
Protocol: as §2

GSH = test: Blood and tissue GSH levels, colorometric kit; format: in vivo, nude rats; conditions: BSO 10 g/m^2 i.p. b.i.d. x 3 days; even in brain and intracerebral tumor
Protocol: as §2

[4] = tested on: low-expressor and high-expressor subclones of the LX-1 SCLC cell line; test: BSO cytoenhancement in LX-1 SCLC subclones; format: cell-based, human; conditions: low- and high-expressor LX-1 subclones
[5] = after a bolus injection; cited from earlier work

Compound `COc1cccc2c1C(=O)c1c(O)c3c(c(O)c1C2=O)C[C@@](O)(C(=O)CO)C[C@@H]3O[C@H]1C[C@H](N)[C@H](O)[C@H](C)O1` [doxorubicin] has an EC50 ([1]; read-out: half maximal cytotoxic dose (EC50), AGS cells, absence of BSO) of 0.1 µg/mL (≈ 0.184 µM) and an EC50 ([1]; read-out: half maximal cytotoxic dose (EC50), AGS cells, pretreatment with BSO 100 μM) of ~0.05 µg/mL (≈ 0.092 µM).
For `CCOC(=O)CNC(=O)[C@H](CS)NC(=O)CC[C@H](N)C(=O)O` [GSH ethyl ester], the “reduction of BR96-DOX cell kill, other chemoprotective agents” value (shortened to “reduction … other chemoprotective agents”) ([2]; NHGC) was 15-20% and the “percent viable gastric cells, BR96-DOX plus chemoprotectant (FIGS. 3 and 4)” value [2] was “second highest amount of viable gastric cells”.
In the case of `CC(=O)N[C@@H](CS)C(=O)O` [NAC, N-acetylcysteine], the EC50 (B.5 LX-1 SCLC cells) is reported as 100 to 300 µg/mL (≈ 613 to 1840 µM), the “protection against BR96-DOX cytotoxicity in normal gastric cells” value ([2]; NHGC) is reported as “protected the normal gastric cells; also recorded: at least partially protective; also recorded: protective independent of the presence of BSO” and the “reduction of BR96-DOX cell kill” value ([2]; NHGC, experiment 1) is reported as 25%. The “reduction of BR96-DOX cell kill” value ([2]; NHGC, experiment 2) was 95%, the “reduction of BR96-DOX cell kill” value ([2]; NHGC, experiment 3) was 55% and the “protective NAC concentration relative to that required against alkylating chemotherapeutics” value ([2]; NHGC/BR96-DOX vs B.5 LX-1/alkylators) was 10 fold. The “percent viable gastric cells, BR96-DOX plus chemoprotectant (FIGS. 3 and 4)” value [2] was “increased the percentage of viable gastric cells”, the “effect on BSO-enhanced BR96-DOX cytotoxicity” value [1] was “did reverse the enhanced cytotoxicity” and the “effect on response to BR96-DOX” value ([1]; AGS cells not treated with BSO) was “did not alter the response”. The “cell survival, comparison of combinations (FIGS. 5 and 6)” value [1] was “greatest amount of cells survived”, the “systemic delivery of radiolabelled NAC” value ([3]; aortic infusion) was “increasing systemic delivery” and the “brain delivery of radiolabelled NAC” value ([3]; aortic infusion (retrograde left external carotid, left internal carotid occluded)) was “negligible levels”. For the same compound, the “brain delivery of radiolabelled NAC” value ([3]; intraarterial, right carotid artery) was “high delivery to the right cerebral hemisphere”, the granulocytes at nadir (bone marrow; day 6, NAC 1200 mg/m^2 aortic infusion before intra-carotid chemotherapy, no BSO, no NAC: 146±160, p<0.02) was 785±494 and the platelets at nadir (bone marrow; day 6, NAC 1200 mg/m^2 aortic infusion before intra-carotid chemotherapy, no BSO, no NAC: 215±126, p<0.02) was 470±234.
For `CCCCS(=N)(=O)CCC(N)C(=O)O` (stereo not shown) [BSO, buthionine sulfoximine], the “effect of BSO on cytotoxicity of BR96-DOX or doxorubicin in normal gastric cells” value ([2]; NHGC) was “did not increase toxicity; also recorded: did not enhance the cytotoxicity”, the “effect of BSO on cytotoxicity in carcinoma cells” value [1] was “enhanced cytotoxicity” and the “cell survival, comparison of combinations (FIGS. 5 and 6)” value [1] was “least survival”. For the same compound, the “reduction of blood and tissue GSH levels” value (GSH) was 50-65%, the “effect of BSO on cytotoxicity of BR96-DOX or doxorubicin” value [4] was “did not enhance the cytotoxicity” and the “bone marrow toxicity of combination chemotherapy” value (bone marrow; BSO pretreatment, intra-carotid carboplatin, melphalan, etoposide phosphate) was “enhanced the bone marrow toxicity”.
For `O=S([O-])([O-])=S.[Na+].[Na+]` [STS, sodium thiosulfate], the plasma half life [5] is given as “about 17 minutes” and the “reduction … other chemoprotective agents” value ([2]; NHGC) is given as “no significant effect”.
For `CSCC[C@@H](N)C(=O)O` [d-Methionine, D-methionine], the “reduction … other chemoprotective agents” value ([2]; NHGC) was “no significant effect”.
